Experimental data: publication PMC4979516, “Quinazoline-based tricyclic compounds that regulate programmed cell death, induce neuronal differentiation, and are curative in animal models for excitotoxicity and hereditary brain disease” (Cell Death Discovery, 2015)
Where “and” joins values, the source holds several entries; their conditions need not be identical. Equal values may be shown once. Entries after “also recorded” stand apart in the source; their conditions may differ.

Key:
[1] = test system: NeuN expression in PC12 cells strain #3; assay: Western blot of NeuN in PC12 strain #3; assay type: cell-based, rat; details: PC12 strain #3, versus vehicle control
Protocol: The relative protein levels of TSPO and other proteins related to neurodifferentiation (including β-actin, NeuN, tubulin-3β), were assayed by immunoblotting with the aid electrophoresis through 12% SDS-polyacrylamide gel, according to previously described methods.[71] A priori, general protein levels were measured by the method of Bradford using BSA as a standard.[75] After electrophoresis, the gels were subjected to electrophoretic transfer to nitrocellulose membranes. Then, the membranes were blocked for 1 h in 5% non-fat milk in 62.5 mM sodium phosphate buffer, pH 7.4, containing 100 mM NaCl, and 0.1% (v/v) Tween-20 (PBS-T) and then incubated for 2 h or overnight at 4 °C with the appropriate antibodies: anti-tubulin-3β 1 : 10 000, anti-NeuN 1 : 1000, anti β-actin 1 : 15 000, and anti-TSPO 1 : 10 000.[73] After washing with TBS-T, the membranes were incubated with IgG secondary antibody linked to horseradish peroxidase (anti-rabbit IgG 1 : 20 000, anti-mouse IgG 1 : 10 000, as appropriate, from Jackson Immunologicals, West Grove, PA, USA) in TBS-T at room temperature. Binding of antibodies to the membrane was detected with the EZ-ECL-detection reagent (Biological Industries), using the ImageQuant LAS 4010 apparatus and Totallab Quant quantitative image analysis of Totallab (Newcastle upon Tyne, England).

[2] = test system: PC12 cells; assay: Neuronal differentiation of PC12 cells, strain not specified; assay type: cell-based, rat; details: agent by itself; MGV-1 50 μM
Protocol: For our newly developed differentiation method by MGV-1 in combination with glutamate, PC12 cells were plated onto poly-L-lysine coated culture plates and Petri dishes at a relatively low density (5.2×10^3 cells/cm^2 for six-well plates and 3.6×10^3 cells/cm^2 for Petri dishes), in DMEM medium containing 8% heat-inactivated FBS and 8% horse serum. […] Exposure to vehicle alone (culture medium with 1% of ethanol) was used as the control.
The major and determining indication of neural differentiation of PC12 cells is neurite development.[23],[80] […] The number of differentiated cells was determined by visual examination of the captured fields. In particular, a line was drafted at half height of the image and the cell bodies crossed by the line were further analyzed regarding differentiation. […] Cells with at least one identifiable neurite with a length at least equal to the cell body diameter were scored, and their number expressed as a percentage of the total number of cells crossed by said line. In addition, for each of these cells, the length of the longest neurite was determined (using AxioVision Image software, Zeiss). […]

[3] = test system: U118MG cells; assay: LDH cytotoxicity assay, glutamate-induced cell death of U118MG cells; details: 35 mM glutamate
Protocol: (1) For U118MG cells, glutamate at a concentration of 35 mM was applied with or without MGV-1. As discussed, glutamate levels in normal healthy brain tissue can average 15 mM, and these levels can be doubled in diseased brain tissue, whereas in cell organelles glutamate levels can be as high as 250 mM (as discussed). […] In more detail, U118MG cells were seeded, 2×10^5 cells per well of 6-well plates and 6×10^3 cells per well of 96-well plates. Twenty-four hours after seeding, U118MG cells were pretreated with MGV-1 (or one of the other compounds) at various concentrations from 0.1 nM–100 μM. Twenty-four hours after the pretreatment, the cells were exposed to 35 mM of glutamate. […] The negative control was vehicle, that is, ethanol with a final concentration of 1%. […] The positive control was exposure to 35 mM of glutamate alone (with 200 μM of glycine).
Wells of 96-well plates were with 6000 cells per well and treated according the protocol presented above. We used the Cytotoxicity Detection Kit (LDH) (Roche Pharmacuticals) according to the manufacturer’s instructions. When cell plasma membranes are damaged, the cytoplasmic enzyme LDH is released into the medium. The amount of formazan formed is proportional to the amount of LDH released.[77] The resulting color intensity is proportional to the number of damaged cells. Absorbance at 492 nm with reference at 690 nm was measured with the Spectrophotometer Zenyth 200 (Anthos) and the results were calculated and normalized according to the formula presented by the manufacturer.

[4] = test system: U118MG cells; assay: Mitochondrial membrane potential (JC-1) assay in U118MG cells exposed to glutamate; assay type: cell-based, human; details: 25 μM compound, 35 mM glutamate
Excerpt: JC-1 was used to assay changes in Δψm, as described previously.[71],[79] Owing to charges distributed along JC-1 molecules, they pass unimpaired (charged) mitochondrial membranes and enter the mitochondrial matrix. There the J-molecules form J-aggregates, which emit at 590 nm (orange–red fluorescence). […] The monomers emit at 527 nm (green fluorescence). A decrease in the red–green fluorescence intensity ratio is an indication for mitochondrial depolarization. As a positive control, the proton ionophore carbonyl cyanide m-chlorophenylhydrazone was used as described previously.[71] Cells were collected and prepared for suspension in 10 μg/ml of JC-1 solution in PBS. After incubation at 37 °C for 30 min in the dark, the cells were washed with 0.5 ml of PBS, and the cell suspensions were analyzed with the BD FACSCalibur flow cytometer.

Structure (SMILES): CN(C)C(=O)Oc1nc(-c2ccccc2)nc2ccccc12 [MGV-1, 2-phenylquinazolin-4-yl dimethylcarbamate]
- Increase of NeuN expression (western blot) [1]: do not enhance NeuN expression significantly
- Neuronal differentiation of PC12 cells (neurite outgrowth) [2]: very effective in inducing extensive neuronal differentiation; also recorded: more effective than NGF and glutamate by themselves
- Protection against glutamate-induced cell death (LDH) ([3]; compound 10-100 μM, 24 h pretreatment): protect against lethal effects of glutamate; also recorded: prevented cell death induction
- Most effective concentration for protection against cell death ([3]; tested 0.1 nM-100 μM): 25 µM and 50 µM
- Prevention of collapse of the ΔΨm induced by glutamate (JC-1) [4]: prevention of the collapse of the ΔΨm
